Measurements reported in patent US9540343B2 (Gilead Sciences, Inc., priority 2011, dated 2017).

Assays:
[1] = tested on: HIV-IIIb; assay: Test A: Antiviral assay in MT4 cells; assay type: cell-based, HIV-1; settings: Human immunodeficiency virus 1, IIIB, MT4, 120 h, read-out: % inhibition at 2 μM, percent inhibition of virus-induced cell killing, from dose response curve at 2 uM drug; MT-4 cells infected with HIV-IIIb, 5 days, CellTiter-Glo
[2] = in vitro; settings: human, uninfected MT-4 cells, CC50 (nM), same protocol as Test A, CellTiter-Glo
In short: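 Cytoprotection read-out: CellTiter-Glo chemiluminescence after 5 days at 37 °C of HIV-IIIb-infected MT-4 cells (m.o.i. 0.003) with compound in 10-point 3-fold dilutions, quadruplicate, 10% FBS. Cytotoxicity (CC50) measured identically without virus.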

Q: Which inhibition at 2 µM [1] does the source give for `COc1ccc2cc(-c3cccnc3[C@H](Cc3cc(F)cc(F)c3)NC(=O)Cc3c[nH]c4ccc(F)cc34)ccc2c1` [Example 435, (S)—N-(2-(3,5-difluorophenyl)-1-(3-(6-methoxynaphthalen-2-yl)pyridin-2-yl)ethyl)-2-(5-fluoro-1H-indol-3-yl)acetamide] here?
A: The inhibition at 2 µM was 7%.

Q: What about the CC50 at 5 days [2] of the same molecule?
A: The CC50 at 5 days was 13900 nM.

Q: Which results are given for `O=C(Cn1nc(C(F)F)c2c1C(F)(F)C1CC21)N[C@@H](Cc1cc(F)cc(F)c1)c1ncccc1-c1ccc2cnccc2c1` (stereo partly drawn) [Example 436]?
A: inhibition at 2 µM [1]: 20%; CC50 at 5 days [2]: 11300 nM

Q: Which results are given for `NC(=O)c1cc(-c2cccnc2[C@H](Cc2cc(F)cc(F)c2)NC(=O)Cn2cc(C(F)(F)F)nc2CO)ccc1F` [Example 437, (S)-5-(2-(2-(3,5-difluorophenyl)-1-(2-(2-(hydroxymethyl)-4-(trifluoromethyl)-1H-imidazol-1-yl)acetamido)ethyl)pyridin-3-yl)-2-fluorobenzamide]?
A: inhibition at 2 µM [1]: 3%; CC50 at 5 days [2]: > 53200 nM

Q: With `O=C(Cn1nc(C(F)F)c2c1C(F)(F)C1CC21)N[C@@H](Cc1cc(F)cc(F)c1)c1ncccc1-c1ccc2nccn2c1` (stereo partly drawn) [Example 438, (S)—N-(1-(3-(imidazo[1,2-a]pyridine-6-yl)-pyridin-2-yl)-2-(3,5-difluorophenyl)ethyl)-2-(3-(difluoromethyl)-5,6-dihydro-4,5-(methano)-6,6-difluoro-cyclopenta[c]pyrazol-1(4H)-yl)acetamide] as the molecule, how does the inhibition at 2 µM [1] read?
A: Its inhibition at 2 µM is 81%.

Q: And the CC50 at 5 days [2]?
A: The CC50 at 5 days was 12100 nM.

Q: Which results are given for `O=C(Cc1c[nH]c2ccc(F)cc12)N[C@@H](Cc1cc(F)cc(F)c1)c1ncccc1-c1cccnc1` [Example 439, (S)—N-(1-(3,3′-bipyridin-2-yl)-2-(3,5-difluorophenyl)ethyl)-2-(5-fluoro-1H-indol-3-yl)acetamide]?
A: inhibition at 2 µM [1]: -2%; CC50 at 5 days [2]: 21700 nM

Q: With `Cn1cc(-c2cccnc2[C@H](Cc2cc(F)cc(F)c2)NC(=O)Cc2c[nH]c3ccc(F)cc23)cn1` [Example 440, (S)—N-(2-(3,5-difluorophenyl)-1-(3-(1-methyl-1H-pyrazol-4-yl)pyridin-2-yl)ethyl)-2-(5-fluoro-1H-indol-3-yl)acetamide] as the molecule, how does the inhibition at 2 µM [1] read?
A: The inhibition at 2 µM was 82%.

Q: And the CC50 at 5 days [2]?
A: Its CC50 at 5 days is 21700 nM.

Q: With `O=C(Cc1c[nH]c2ccc(F)cc12)N[C@@H](Cc1cc(F)cc(F)c1)c1ncccc1-c1ccc2nonc2c1` [Example 441, (S)—N-(1-(3-(benzo[c][1,2,5]oxadiazol-5-yl)pyridin-2-yl)-2-(3,5-difluorophenyl)ethyl)-2-(5-fluoro-1H-indol-3-yl)acetamide] as the molecule, how does the inhibition at 2 µM [1] read?
A: The inhibition at 2 µM was 35%.

Q: What about the CC50 at 5 days [2] of the same molecule?
A: Its CC50 at 5 days is 8650 nM.

Q: With `O=C(Cn1nc(C(F)F)c2c1C(F)(F)C1CC21)N[C@@H](Cc1cc(F)cc(F)c1)c1ncccc1-c1cnc2c(c1)CCCN2` (stereo partly drawn) [Example 442, (S)—N-(1-(3-(5,6,7,8-tetrahydro-1,8-naphthyridin-3-yl)-pyridin-2-yl)-2-(3,5-difluorophenyl)ethyl)-2-(3-(difluoromethyl)-5,6-dihydro-4,5-(methano)-6,6-difluoro-cyclopenta[c]pyrazol-1(4H)-yl)acetamide] as the molecule, how does the inhibition at 2 µM [1] read?
A: The inhibition at 2 µM was 79%.

Q: What about the CC50 at 5 days [2] of the same molecule?
A: Its CC50 at 5 days is 8880 nM.

Q: With `CS(=O)(=O)n1cc(CC(=O)N[C@@H](Cc2cc(F)cc(F)c2)c2ncccc2-c2ccc(F)c(C(N)=O)c2)c2cc(F)ccc21` [Example 444, (S)-5-(2-(2-(3,5-difluorophenyl)-1-(2-(5-fluoro-1-(methylsulfonyl)-1H-indol-3-yl)acetamido)ethyl)pyridin-3-yl)-2-fluorobenzamide] as the molecule, how does the inhibition at 2 µM [1] read?
A: The inhibition at 2 µM was 23%.

Q: What about the CC50 at 5 days [2] of the same molecule?
A: Its CC50 at 5 days is 15500 nM.

Q: With `NC(=O)c1cc(-c2cccnc2[C@H](Cc2cc(F)cc(F)c2)NC(=O)Cc2c[nH]c3ccc(Br)cc23)ccc1F` [Example 445, (S)-5-(2-(1-(2-(5-bromo-1H-indol-3-yl)acetamido)-2-(3,5-difluorophenyl)ethyl)pyridin-3-yl)-2-fluorobenzamide] as the molecule, how does the inhibition at 2 µM [1] read?
A: The inhibition at 2 µM was 114%.

Q: What about the CC50 at 5 days [2] of the same molecule?
A: Its CC50 at 5 days is 10700 nM.

Q: What does the source list for `NC(=O)c1cc(-c2cccnc2[C@H](Cc2cc(F)cc(F)c2)NC(=O)Cn2nc(C(F)(F)F)c3c2CCC(=O)C3)ccc1F` [Example 446, (S)-5-(2-(2-(3,5-difluorophenyl)-1-(2-(5-oxo-3-(trifluoromethyl)-4,5,6,7-tetrahydro-1H-indazol-1-yl)acetamido)ethyl)pyridin-3-yl)-2-fluorobenzamide]?
A: inhibition at 2 µM [1]: 79%; CC50 at 5 days [2]: > 53200 nM

Q: For `O=C(Cc1n[nH]c2ccccc12)NC(Cc1cc(F)cc(F)c1)c1nccnc1-c1ccc(Cl)cc1` (stereo not drawn) [Example 447, N-(1-(3-(4-chlorophenyl)pyrazin-2-yl)-2-(3,5-difluorophenyl)ethyl)-2-(1H-indazol-3-yl)acetamide], which inhibition at 2 µM [1] is on record?
A: Its inhibition at 2 µM is 0%.

Q: And the CC50 at 5 days [2]?
A: The CC50 at 5 days was 13000 nM.

Q: With `NC(=O)c1cc(-c2cccnc2[C@H](Cc2cc(F)cc(F)c2)NC(=O)Cn2nc(C(F)(F)F)c3c2CCC(O)C3)ccc1F` (stereo partly drawn) [Example 448, 5-(2-((1S)-2-(3,5-difluorophenyl)-1-(2-(5-hydroxy-3-(trifluoromethyl)-4,5,6,7-tetrahydro-1H-indazol-1-yl)acetamido)ethyl)pyridin-3-yl)-2-fluorobenzamide] as the molecule, how does the inhibition at 2 µM [1] read?
A: The inhibition at 2 µM was 103%.

Q: What about the CC50 at 5 days [2] of the same molecule?
A: The CC50 at 5 days was > 53200 nM.

Q: What does the source list for `CC1(C)OB(c2cn(CC(=O)N[C@@H](Cc3cc(F)cc(F)c3)c3ncccc3-c3ccc(F)c(C(N)=O)c3)nc2C(F)(F)F)OC1(C)C` [Example 451B, (S)-5-(2-(2-(3,5-difluorophenyl)-1-(2-(4-(4,4,5,5-tetramethyl-1,3,2-dioxaborolan-2-yl)-3-(trifluoromethyl)-1H-pyrazol-1-yl)acetamido)ethyl)pyridin-3-yl)-2-fluorobenzamide]?
A: inhibition at 2 µM [1]: 1%; CC50 at 5 days [2]: 37100 nM

Q: Which inhibition at 2 µM [1] does the source give for `COC(=O)c1nn(CC(=O)N[C@@H](Cc2cc(F)cc(F)c2)c2ncccc2-c2ccc(F)c(C(N)=O)c2)c2c1COC2` [Example 452C, (S)-methyl 1-(2-((1-(3-(3-carbamoyl-4-fluorophenyl)pyridin-2-yl)-2-(3,5-difluorophenyl)ethyl)amino)-2-oxoethyl)-4,6-dihydro-1H-furo[3,4-c]pyrazole-3-carboxylate] here?
A: Its inhibition at 2 µM is 4%.

Q: And the CC50 at 5 days [2]?
A: Its CC50 at 5 days is 9070 nM.

Q: For `COC(=O)c1c2c(nn1CC(=O)N[C@@H](Cc1cc(F)cc(F)c1)c1ncccc1-c1ccc(F)c(C(N)=O)c1)COC2` [Example 453, (S)-methyl 2-(2-((1-(3-(3-carbamoyl-4-fluorophenyl)pyridin-2-yl)-2-(3,5-difluorophenyl)ethyl)amino)-2-oxoethyl)-4,6-dihydro-2H-furo[3,4-c]pyrazole-3-carboxylate], which inhibition at 2 µM [1] is on record?
A: Its inhibition at 2 µM is 3%.

Q: And the CC50 at 5 days [2]?
A: The CC50 at 5 days was > 53200 nM.

Q: What does the source list for `COc1ccc2[nH]cc(CC(=O)NC(Cc3cc(F)cc(F)c3)c3nccnc3-c3ccc(Cl)cc3)c2n1` (stereo not drawn) [Example 454, N-(1-(3-(4-chlorophenyl)pyrazin-2-yl)-2-(3,5-difluorophenyl)ethyl)-2-(5-methoxy-1H-pyrrolo[3,2-b]pyridin-3-yl)acetamide]?
A: inhibition at 2 µM [1]: 1%; CC50 at 5 days [2]: 11100 nM

Q: With `NC(=O)c1cc(-c2cccnc2[C@H](Cc2cc(F)cc(F)c2)NC(=O)Cn2nc(C(=O)O)c3c2COC3)ccc1F` [Example 456, (S)-1-(2-(1-(3-(3-carbamoyl-4-fluorophenyl)pyridin-2-yl)-2-(3,5-difluorophenyl)ethylamino)-2-oxoethyl)-4,6-dihydro-1H-furo[3,4-c]pyrazole-3-carboxylic acid] as the molecule, how does the inhibition at 2 µM [1] read?
A: The inhibition at 2 µM was 0%.

Q: And the CC50 at 5 days [2]?
A: Its CC50 at 5 days is > 53200 nM.

Q: For `NC(=O)c1cc(-c2cccnc2[C@H](Cc2cc(F)cc(F)c2)NC(=O)Cn2nc(C(F)(F)F)c3c2C2CC2C3O)ccc1F` (stereo partly drawn) [Example 457, 5-(2-((1S)-2-(3,5-difluorophenyl)-1-(2-(4-hydroxy-3-(trifluoromethyl)-4,4-a,5,5a-tetrahydro-1H-cyclopropa[4,5]cyclopenta[1,2-c]pyrazol-1-yl)acetamido)ethyl)pyridin-3-yl)-2-fluorobenzamide], which inhibition at 2 µM [1] is on record?
A: Its inhibition at 2 µM is 64%.

Q: What about the CC50 at 5 days [2] of the same molecule?
A: Its CC50 at 5 days is > 53200 nM.

Q: Which inhibition at 2 µM [1] does the source give for `O=C(Cc1c[nH]c2ccc(F)cc12)NC(Cc1cc(F)cc(F)c1)c1nccnc1-c1ccc(Cl)cc1` (stereo not drawn) [Example 459, N-(1-(3-(4-chlorophenyl)pyrazin-2-yl)-2-(3,5-difluorophenyl)ethyl)-2-(5-fluoro-1H-indol-3-yl)acetamide] here?
A: The inhibition at 2 µM was 28%.

Q: What about the CC50 at 5 days [2] of the same molecule?
A: Its CC50 at 5 days is 14200 nM.

Q: Which results are given for `NC(=O)c1cc(-c2cccnc2[C@H](Cc2cc(F)cc(F)c2)NC(=O)Cn2cc(C3=CCCCC3)c(C(F)(F)F)n2)ccc1F` [Example 460, (S)-5-(2-(1-(2-(4-cyclohexenyl-3-(trifluoromethyl)-1H-pyrazol-1-yl)acetamido)-2-(3,5-difluorophenyl)ethyl)pyridin-3-yl)-2-fluorobenzamide]?
A: inhibition at 2 µM [1]: 0%; CC50 at 5 days [2]: 8970 nM

Q: With `CCc1cc(C(F)(F)F)nn1CC(=O)N[C@@H](Cc1cc(F)cc(F)c1)c1ncccc1-c1ccc(F)c(C(N)=O)c1` [Example 461, (S)-5-(2-(2-(3,5-difluorophenyl)-1-(2-(5-ethyl-3-(trifluoromethyl)-1H-pyrazol-1-yl)acetamido)ethyl)pyridin-3-yl)-2-fluorobenzamide] as the molecule, how does the inhibition at 2 µM [1] read?
A: Its inhibition at 2 µM is 25%.

Q: What about the CC50 at 5 days [2] of the same molecule?
A: Its CC50 at 5 days is 32000 nM.

Q: What does the source list for `NC(=O)c1cc(-c2cccnc2[C@H](Cc2cc(F)cc(F)c2)NC(=O)Cn2cc(Br)c(C(F)(F)F)n2)ccc1F` [Example 463, (S)-5-(2-(1-(2-(4-bromo-3-(trifluoromethyl)-1H-pyrazol-1-yl)acetamido)-2-(3,5-difluorophenyl)ethyl)pyridin-3-yl)-2-fluorobenzamide]?
A: inhibition at 2 µM [1]: 11%; CC50 at 5 days [2]: 14700 nM

Q: With `CS(=O)(=O)c1ccc2[nH]cc(CC(=O)N[C@@H](Cc3cc(F)cc(F)c3)c3ncccc3-c3ccc(F)c(C(N)=O)c3)c2c1` [Example 464, (S)-5-(2-(2-(3,5-difluorophenyl)-1-(2-(5-(methylsulfonyl)-1H-indol-3-yl)acetamido)ethyl)pyridin-3-yl)-2-fluorobenzamide] as the molecule, how does the inhibition at 2 µM [1] read?
A: The inhibition at 2 µM was 119%.

Q: And the CC50 at 5 days [2]?
A: The CC50 at 5 days was > 53200 nM.
